# Where two headings read alike, the source gives them in different places.
# Target: T1, Human Cav3.1 calcium channel (Homo sapiens, UniProt O43497)
# T1 construct: expressed in transfected cells; host or cells: HEK-293 natClytin/TASK1+Cav3.1 cell line
# Test: Human Cav3.1 calcium channel patch clamp assay (SyncroPatch 384PE; single point and IC50, voltage dependent block)
# Type: cell-based
# Details: for % Inhibition (Single Point Data): Testing Conc 1.25, patch clamp
# Procedure: Certain compounds (as indicated) were tested for Human Cav3.1 calcium channel activity via a patch clamp assay as disclosed herein.
# Pulse generation and data collection were performed with PatchController384 V1.3.0 and DataController384 V1.2.1 (Nanion Technologies). Offline analysis was performed using Excel and Graphpad Prism (V 8.4.2) with complete data files uploaded to Dotmatics. The access resistance and apparent membrane capacitance were estimated using built-in protocols. Current was recorded in whole cell configuration from a population of cells. The cells were lifted, triturated, and resuspended at 800,000 cells/ml. The cells were allowed to recover in the cell hotel prior to experimentation. Currents were recorded at room temperature. The external solution contained the following (in mM): NaCl 80, NMDG 60, KCl 4, MgCl2 1, CaCl2 6, glucose 5 and HEPES 10 (pH=7.4, Osmolarity˜300 mOsm). The extracellular solution was used as the wash, reference and compound delivery solution.
# The compound plate was created at 2× concentrated in the extracellular solution. The compound was diluted to 1:2 when added to the recording well. The amount of DMSO in the extracellular solution was held constant at the level used for the highest tested concentration. For the voltage clamp experiments on Cav3.1, data were sampled at 10 KHz. After establishment of the seal and the passage in the whole cell configuration, the cells were held at −120 mV. Cav3.1 current was evoked using a 100 ms step to −20 mV (to measure resting state block), followed by a 1600 ms step to −65 mV and a second 100 ms step to −20 mV (to measure voltage dependent block). The voltage protocol was applied every 15 seconds in the absence and in the presence of the compounds under investigation. […] Current amplitude (pA) was measured in the peak 1 and 2. The average of last 3 sweeps of each liquid period (vehicle, compound under investigation, full block) was calculated. Nickel-sensitive current was used to calculate the % of inhibition in the presence of the compound under investigation.
# [1] = voltage dependent block (VDB), HEK-293 natClytin/TASK1+Cav3.1 cell line, read-out: Cav3.1 IC50
# [2] = HEK-293 natClytin/TASK1+Cav3.1 cell line
# T1 sequence (O43497 whole entry): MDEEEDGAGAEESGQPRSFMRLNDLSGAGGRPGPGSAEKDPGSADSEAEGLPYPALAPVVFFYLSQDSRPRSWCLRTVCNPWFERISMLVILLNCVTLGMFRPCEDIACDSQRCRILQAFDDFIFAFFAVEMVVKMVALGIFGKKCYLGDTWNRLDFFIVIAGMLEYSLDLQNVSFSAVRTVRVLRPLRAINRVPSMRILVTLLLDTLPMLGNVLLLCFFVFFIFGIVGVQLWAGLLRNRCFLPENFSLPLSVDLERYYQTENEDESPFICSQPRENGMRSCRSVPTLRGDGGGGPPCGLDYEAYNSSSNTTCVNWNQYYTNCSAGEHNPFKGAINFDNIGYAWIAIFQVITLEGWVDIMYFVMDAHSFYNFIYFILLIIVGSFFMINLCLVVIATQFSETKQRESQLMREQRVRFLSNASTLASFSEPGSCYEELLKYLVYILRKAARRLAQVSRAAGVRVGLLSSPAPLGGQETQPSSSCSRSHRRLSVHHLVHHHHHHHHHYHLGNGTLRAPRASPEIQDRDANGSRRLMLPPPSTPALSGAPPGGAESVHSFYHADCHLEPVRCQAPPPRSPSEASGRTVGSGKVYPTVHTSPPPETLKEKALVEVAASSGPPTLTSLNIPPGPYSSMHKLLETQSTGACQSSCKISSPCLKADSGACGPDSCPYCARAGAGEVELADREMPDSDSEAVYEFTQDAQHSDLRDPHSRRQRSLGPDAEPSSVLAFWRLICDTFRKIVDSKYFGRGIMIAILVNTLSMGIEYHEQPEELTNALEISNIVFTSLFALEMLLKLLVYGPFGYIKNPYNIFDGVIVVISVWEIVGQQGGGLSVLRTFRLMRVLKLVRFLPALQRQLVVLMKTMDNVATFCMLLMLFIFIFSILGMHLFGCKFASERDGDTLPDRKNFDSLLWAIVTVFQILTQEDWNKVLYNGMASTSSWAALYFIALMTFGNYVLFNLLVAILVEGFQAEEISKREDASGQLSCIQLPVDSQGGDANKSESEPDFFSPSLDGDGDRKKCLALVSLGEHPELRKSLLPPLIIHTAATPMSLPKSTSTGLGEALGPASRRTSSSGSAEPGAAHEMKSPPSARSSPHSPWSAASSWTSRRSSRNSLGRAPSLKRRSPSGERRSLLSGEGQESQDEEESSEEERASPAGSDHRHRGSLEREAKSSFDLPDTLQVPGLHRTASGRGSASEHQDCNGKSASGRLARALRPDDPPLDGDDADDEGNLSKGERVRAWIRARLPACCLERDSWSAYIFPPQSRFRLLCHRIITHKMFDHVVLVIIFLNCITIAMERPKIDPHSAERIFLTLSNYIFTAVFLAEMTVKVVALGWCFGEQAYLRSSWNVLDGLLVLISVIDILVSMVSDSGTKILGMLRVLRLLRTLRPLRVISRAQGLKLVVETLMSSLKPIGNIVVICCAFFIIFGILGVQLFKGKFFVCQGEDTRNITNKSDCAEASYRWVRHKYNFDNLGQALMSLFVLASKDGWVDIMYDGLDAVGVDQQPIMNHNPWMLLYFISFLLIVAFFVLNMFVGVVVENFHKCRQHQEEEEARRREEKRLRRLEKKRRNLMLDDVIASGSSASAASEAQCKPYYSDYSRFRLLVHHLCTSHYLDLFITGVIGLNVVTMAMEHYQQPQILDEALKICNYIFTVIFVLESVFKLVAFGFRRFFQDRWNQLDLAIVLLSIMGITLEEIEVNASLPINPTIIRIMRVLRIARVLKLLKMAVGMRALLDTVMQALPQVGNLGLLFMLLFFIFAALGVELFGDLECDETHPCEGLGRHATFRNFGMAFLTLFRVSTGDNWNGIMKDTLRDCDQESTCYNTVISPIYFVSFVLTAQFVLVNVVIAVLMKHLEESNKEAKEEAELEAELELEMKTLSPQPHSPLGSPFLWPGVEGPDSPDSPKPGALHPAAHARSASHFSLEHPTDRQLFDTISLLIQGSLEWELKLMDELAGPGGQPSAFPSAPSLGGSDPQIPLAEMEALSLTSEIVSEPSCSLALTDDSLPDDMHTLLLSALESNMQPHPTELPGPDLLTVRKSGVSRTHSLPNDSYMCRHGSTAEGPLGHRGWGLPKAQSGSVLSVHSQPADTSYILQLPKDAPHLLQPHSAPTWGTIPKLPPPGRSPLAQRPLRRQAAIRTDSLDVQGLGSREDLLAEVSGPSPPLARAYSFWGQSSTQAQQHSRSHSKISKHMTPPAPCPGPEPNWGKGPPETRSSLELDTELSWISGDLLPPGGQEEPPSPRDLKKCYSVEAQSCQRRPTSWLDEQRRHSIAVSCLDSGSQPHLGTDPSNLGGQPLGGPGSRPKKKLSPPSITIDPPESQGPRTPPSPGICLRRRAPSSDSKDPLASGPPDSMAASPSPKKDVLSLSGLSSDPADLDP
SMILES,IC50 [1] [nM],% Inhibition (Single Point Data) [2] [%],IC50 [nM]
O=C(CN1CC2CC(C1)N2CC(=O)NC1(C(F)(F)F)CC1)Nc1cc(F)c(F)c(OC(F)F)c1 [Compound 361],127,–,–
COc1ccc(F)c(NC(=O)CN2CC3CC(C2)N3CC(=O)NC(C)(C)C)c1 [Compound 222],1100,52.3,–
CC(C)(C)NC(=O)CN1C[C@@H]2C[C@H]1CN2CC(=O)NC12CC3CC(CC(Cl)(C3)C1)C2 [Compound 344],417,79.298,–
COc1cc(NC(=O)CN2CC3CC(C2)N3CC(=O)NC(C)(C)C)ccc1Cl [Compound 331],–,102.24,–
CC(C)(C)NC(=O)CN1C[C@@H]2C[C@H]1CN2CC(=O)Nc1ccn(Cc2ccc(C#N)cn2)n1 [Compound 314],–,5.0515,–
CC(C)(C)NC(=O)CN1C2CC(CC(=O)Nc3cc(F)cc(Cl)c3)CC1C2 (stereo not drawn) [Compound 373],5820,–,–
COc1cc(F)cc(NC(=O)CN2CC3CC(C2)N3CC(=O)NC2(C(F)(F)F)CC2)c1 [Compound 333],178,82.813,–
CC(c1nc2c(Cl)cc(F)cc2[nH]1)N1CC2CCC(C1)N2CC(=O)NC(C)(C)C (stereo not drawn) [Compound 201],–,95.763,84.2
CC(C)(C)NC(=O)CN1C[C@@H]2C[C@H]1CN2CC(=O)Nc1cc(F)cc(OC(F)F)c1 [Compound 22],< 78.2,97.77,–
CC(C)(C)NC(=O)CN1C2CC1CN(Cc1nc3c(F)ccc(F)c3[nH]1)C2 [Compound 165],–,87.314,–
Cc1cc(F)cc(NC(=O)CN2C[C@@H]3C[C@H]2CN3CC(=O)NC(C)(C)C)c1 [Compound 276],474,71.467,–
CC(C)(C)NC(=O)CN1C2CC1CN(CC(=O)Nc1ccc(F)c(OC(F)(F)F)c1)C2 [Compound 242],177,93.661,–
CC(C)(C)NC(=O)CN1C2CC1CN(Cc1nc3c(Cl)cc(F)cc3o1)C2 [Compound 115],4360,–,–
CC(C(=O)NC(C)(C)C)N1C2CC1CN(CC(=O)Nc1ccc(F)c(Cl)c1)C2 (stereo not drawn) [Compound 260],274,80.656,–
Fc1cc(Cl)c2nc(CN3CC4CC(C3)N4CC3CCOCC3)[nH]c2c1 [Compound 117],1360,40.989,–
CC1(C)CC(CN2C[C@@H]3C[C@H]2CN3CC(=O)NC23CC4CC(CC(C4)C2)C3)CCO1 (stereo partly drawn) [Compound 298],2080,26.791,–
Cc1cc(Cl)cc(NC(=O)CN2CC3CC(C2)N3CC(=O)NC(C)(C)C)c1 [Compound 305],199,101.69,–
O=C(CN1C[C@@H]2C[C@H]1CN2CC(=O)NC1(C(F)(F)F)CC1)Nc1cc(F)cc(OC(F)F)c1 [Compound 324],–,100.07,–
CC(C)(C)NC(=O)CN1C2CC1CN(Cc1nc3c(Cl)cc(N)cc3o1)C2 [Compound 111],–,35.454,–
CC(C)(C)NC(=O)CN1CC2CCC1CN2CC(=O)NC12CC3CC(CC(C3)C1)C2 (stereo not drawn) [Compound 8],609,76.573,–
OC1(CCN2C3CC2CN(Cc2nc4c(Cl)cc(F)cc4[nH]2)C3)CCCC1 [Compound 108],338,79.783,–
O=C(CN1CC2CC(C1)N2CCNC(=O)C1(C(F)(F)F)CCC1)Nc1ccc(F)c(Cl)c1 [Compound 17],–,99.317,< 78.2
CC(C(=O)Nc1cc(F)cc(OC(F)F)c1)N1C[C@@H]2C[C@H]1CN2CC(=O)NC(C)(C)C (stereo partly drawn) [Compound 265],–,88.764,–

SMILES,IC50 [1] [nM],% Inhibition (Single Point Data) [2] [%],IC50 [nM]
Fc1ccc(Cl)c2nc(CN3CCN(CC(F)(F)C4CCCCC4)CC3)[nH]c12 [Compound 154],525,75.83,–
COc1cc(Cl)cc(NC(=O)CN2CC3CC(C2)N3CC(=O)NC2(C(F)(F)F)CC2)c1 [Compound 334],–,79.86,–
O=C(CN1C2CC1CN(Cc1nc3c(Cl)cc(F)cc3[nH]1)C2)OC1CCCC1 [Compound 141],162,100.15,–
O=C(CN1CC2CC(C1)N2CC(=O)NC1(C(F)(F)F)CC1)Nc1ccc(F)c(OC(F)F)c1 [Compound 245],–,96.987,97.8
O=S(=O)(CCN1C2CC1CN(Cc1nc3c(Cl)ccc(F)c3[nH]1)C2)c1ccccc1 [Compound 168],711,66.949,–
CC(C)(C)NC(=O)CN1C2CC1CN(CC(=O)NC13CCC(CC1)CC3)C2 [Compound 307],1010,41.625,–
O=C(CN1C2CC1CN(Cc1nc3c(Cl)cc(F)cc3[nH]1)C2)NC1(C(F)(F)F)COC1 [Compound 182],–,92.993,64.8
CC(C)(C)NC(=O)CN1C2CC1CN(CC(=O)NC13CC4CC(CC(C4)C1)C3)C2 [Compound 258],410,91.927,–
O=C(CN1C[C@@H]2C[C@H]1CN2CCC1CCC(F)(F)CC1)NC12CC3CC(CC(C3)C1)C2 [Compound 318],304,88.753,–
CC(C)(NC(=O)CN1CC2CC1CN2CC(=O)Nc1ccc(F)c(Cl)c1)C(F)(F)F (stereo not drawn) [Compound 235],226,92.093,–
CC(C)(C)NC(=O)CN1CC2CC1CN2CC(=O)Nc1cc(Cl)ccc1F (stereo not drawn) [Compound 48],1340,28.07,–
Fc1cc(Cl)c2nc(CN3CC4CC(C3)N4CCC3CCC(F)(F)CC3)[nH]c2c1 [Compound 104],–,99.877,< 78.2
Fc1cc(Cl)c2nc(CN3CCN(CCC4CCCC4)CC3)[nH]c2c1 [Compound 71],–,94.005,–
CC(C)(C)NC(=O)CN1C2CC1CN(CC(=O)Nc1cc(F)ccc1Cl)C2 [Compound 213],–,27.718,–
OC1(CN2C3CC2CN(Cc2nc4c(Cl)cc(F)cc4[nH]2)C3)CCC(F)(F)CC1 [Compound 151],–,95.252,–
CC1(C)CC(CN2C3CCC2CN(Cc2nc4c(Cl)cc(F)cc4[nH]2)C3)CCO1 (stereo not drawn) [Compound 96],205,93.367,–
CC(C)(C)NC(=O)CN1C2CC1CN(CC(=O)Nc1cccc(Cl)c1)C2 [Compound 11],–,81.305,–
CC(C)(C)NC(=O)CN1C2CC1CN(CC(=O)NCC13CC4CC(CC(C4)C1)C3)C2 [Compound 306],1990,34.765,–
CC(C)(C)NC(=O)CN1C2CCC1CN(CC(=O)Nc1cc(F)cc(Cl)c1)C2 [Compound 3],273,94.689,–
CC1(C(=O)OCCN2C3CC2CN(Cc2nc4c(Cl)cc(F)cc4[nH]2)C3)CC1 [Compound 143],174,78.298,–
O[C@H]1CC[C@H](OCCN2C3CC2CN(Cc2nc4c(Cl)cc(F)cc4[nH]2)C3)CC1 [Compound 133],553,72.888,–
CC1(NC(=O)CN2C3CCC2CN(Cc2nc4c(Cl)cc(F)cc4[nH]2)C3)COC1 [Compound 82],–,98.209,–

# From US20250213558A1, “T-TYPE CALCIUM CHANNEL MODULATORS COMPRISING A PIPERAZINE OR 1,4-DIAZEPANE CORE AND METHODS OF USE THEREOF” (Praxis Precision Medicines, Inc., priority 2022, published 2025)
